Test results as given in patent US10548894B2, “Combination therapy” (Array BioPharma Inc., priority 2013, dated 2020).

Tests used:
SK-MEL-5 = assay: xCELLigence real-time impedance growth assay; type: cell-based; conditions: SK-MEL-5, absence of FGF2; Formula (I) 100 nM, Compound H 1 uM
Protocol: (§1) Shown is the growth in real time of the (Top A) COLO 741 and (Bottom B) SK-MEL-5 cell lines as measured using the xCELLigence impedance-based cell analyzer as discussed in Example 5. Where indicated FGF2 and Compound H were supplemented to the media at concentrations of 100 ng/ml, and 1 uM, respectively. The Compound of Formula (I) was used at 500 nM in (A) and 100 nM (B).
(§2) For CellTiter-Glo™ assays, cells were dispensed into tissue culture treated 96-well plates (Costar, catalog number 3904) with a final volume of 80 μL of medium and at density of 3000 cells per well. 12 to 24 hrs after plating, 20 μL of each compound dilution series were transferred to plates containing the cells, resulting in compound concentration ranges of 2700 nM to 3.7 nM by 3-fold dilutions and a final DMSO concentration of 0.16%. The total volume in each well was […]. Plates were incubated for 72 hrs and the effects of compounds on cell proliferation was determined using the CellTiter-Glo™ Luminescent Cell Viability Assay (CTG, Promega) and a Victor™ X4 plate reader (Perkin Elmer). For real-time growth assays cells were seeded into xCELLigence E-plates (Roche catalogue number 05232368001) at a density of 4000 cells per well in a total of 90 μl of media and 24 hrs after plating, 11 μl of media with or without compound was added to the wells. 2-4 replicate wells were plated for all cell lines and treatment groups with the exception of LGX818+FGF2 treated COLO 741 cells (N=1). Where indicated final concentrations of compounds and growth factor were 1 uM for Compound H, 100 ng/ml for FGF2, and either 100 nM (SK-MEL-5) or 500 nM (COLO 741) for the Compound of Formula (I). Cells were continuously monitored every two hours for seven days with the xCELLigence real-time impedance based cell analyzer. Impedance was measured using the electrodes on the E-plates, with increasing surface area coverage of cells creating greater electrode impedance. […] In all cases cell index values were normalized to a timepoint immediately following the addition of compound.
(§3) To determine whether rescue of BRAFV600E melanoma cell lines by FGF2 was dependent on FGFR signaling, we examined whether the selective FGFR inhibitor Compound H could prevent FGF2-mediated rescue. Two cell lines which were rescued to varying degrees by FGF2 (COLO 741, and SK-MEL-5, Table 8-1) were cultured in media containing the Compound of Formula (I) and FGF2 either in the presence or absence of Compound H and growth measured in real time.

COLO 741 = assay: xCELLigence real-time impedance growth assay; type: cell-based; conditions: COLO 741, absence of FGF2; Formula (I) 500 nM, Compound H 1 uM
Protocol: as §1, §2, §3

[1] = system: MAPK and PIK3C signaling in COLO 741 cells; assay: Western analysis of phosphorylated MEK1/2, ERK1/2 and AKT; type: cell-based; conditions: COLO 741, 2 and 24 hours, no FGF2; Formula (I) 100 nM, Compound H 1.0 uM
Protocol: (§4) FIG. 4—The effect on signaling of combining the Compound of Formula (I) with the FGFR inhibitor Compound H and the FGFR ligand FGF2 in two BRAFV600E mutant melanoma-derived cell lines in vitro. Shown is western analysis of both phosphorylated and total AKT, ERK1/2, and MEK1/2 proteins isolated from (A) […] and (B) SK-MEL-5 cells following treatment with the Compound of Formula (I) (100 nM), FGF2 (100 ng/ml), and Compound H (1 uM). Cells were treated for 2 and 24 hours with agents singly and in combination as discussed in Example 5.
(§5) For Western analysis, cells were plated in 6-well (Costar, catalog number 3506) plates at a density of 5×10^5 cells per well in 2.0 ml of complete culture medium. Twelve to 24 hrs after plating, cells were treated with the various compounds, and in all experiments the Compound of Formula (I), Compound H, and FGF2 were used at final concentrations of 100 nM, 1.0 uM, and 100 ng/ml, respectively. Cells were harvested 2, and 24 hrs following the addition of compound in freshly prepared cell lysis buffer (Cell Signaling Technology Catalog number 9803); supplemented with both phosphatase (PhosStop, Roche Catalog number 04906845001) and protease inhibitors (Roche, catalog number 11697498001). Proteins from cell lysates were separated by electrophoresis though a NuPAGE 4-12% Bis-Tis midi gel (Novex, catalog number WG1402BX10), transferred to nitrocellulose membranes, which were subsequently incubated with antibodies from Cell Signaling Technology (Danvers, Mass., USA) recognizing p-AKT (S473, Catalog number 4058), total AKT (Catalog number 2920), p-ERK1/2 (T202/Y204, catalog number 9101), total ERK1/2 (catalog number 9107), p-MEK1/2 (S217/221, catalog number 9121) and β-actin (Ambion, catalog number AM4302). Western blots were visualized following incubation with IRDye 680RD Goat anti-Rabbit IgG (Li-Cor, Catalog number 926-68071) and IRDye 800 CW Goat anti-Mouse IgG (Li-Cor, Catalog number 926-32210) and scanning with an Odyssey Infrared Imager System (Li-Cor, Lincoln, Nebr., USA).
(§6) To investigate whether either restored MAPK or activated PIK3C signaling might underlie FGF2-mediated rescue the effects of FGF2 on MAPK and PIK3C signaling were examined via western-blot analysis of phosphorylated MEK1/2 (MAP2K1/2), ERK1/2 (MAPK1/2) and AKT1/2/3.

[2] = system: MAPK and PIK3C signaling in SK-MEL-5 cells; assay: as above; type: cell-based; conditions: SK-MEL-5, 2 and 24 hours, no FGF2; Formula (I) 100 nM, Compound H 1.0 uM
Protocol: as §4, §5, §6

[3] = Clinical dose finding and tolerability (RP2D/MTD) in patients; type: in vivo
From the text: The selection of the starting dose follows the ICH S9 guidelines for choosing a starting a dose for a first-in-human trial conducted in patients with cancer, and is shown in Table 6-2.
Table 3 describes the starting doses and the provisional dose levels of study treatments for the combinations that may be evaluated during this trial. Additional dose levels not currently specified may be enrolled and additional patients may be enrolled at a dose level already tested if such changes are deemed necessary to provide optimal safety and tolerability, pharmacokinetic, and pharmacodynamic data.

WM-266-4 cells [4] = assay: ATP-based CTG (Cell Titer Glo) cell viability assay, 72 h; conditions: Homo sapiens, WM-266-4 parent, single agent
Protocol: (§7) Compound stocks are prepared in DMSO at a final concentration of 10 mM. Working stocks are serially diluted in the appropriate cell culture medium in 3-fold increments to achieve final assay concentrations ranging from 2.7 μM to 1.2 nM.
(§8) A-375 and WM-266-4 cells were purchased from American Type Culture Collection (ATCC). The A-375 cells were cultured in DMEM medium (ATCC) and the WM-266-4 cells were cultured in EMEM medium (ATCC) both supplemented with 10% fetal bovine serum (Gibco) and incubated at 37° C./5% CO2. The cell lines engineered to express commonly occurring alleles indicative of resistance were acquired from Novartis-Emeryville. These resistant models include, A-375 cells expressing mutant MEK1P124L, truncated p61-BRAFV600E, or mutant NRASQ61K, and WM-266-4 cells expressing mutant MEK1C121S, truncated p61-BRAFV600E, or mutant NRASQ61K. These cells were cultured in the appropriate parental medium with selection marker G418 and in the presence of 5 uM LFE158 (MEK mutants) or LIH720 (truncated p61-BRAFV600E).
(§9) For screening, cells were seeded in 80 ul of medium in 384-well plates (Thermo Scientific, cat#4332) at 500 (A-375) or 750 (WM-266-4) cell densities per well using a MultiDrop Combi (Thermo-Fisher) with an 8-channel standard cassette. To promote an even distribution of cells across the entire well, cells were briefly centrifuged at 1000 RPM and incubated at room temperature 30 minutes. All plates were incubated at 37° C., 5% CO2 for 24 h prior to compound addition. Compound stock was freshly prepared in the appropriate culture medium, and added using a PAA robot equipped with a 200n1 pin tool. In a minimum of three replicate wells, single agent and combination effects after 72 hours, were assessed by both quantification of cellular ATP levels via Cell Titer Glo (Promega) according to the manufacturer's protocol and by microscopy imaging. For imaging, cells were fixed to the plates and permeabilized with a solution of 10% PFA, 0.3% TX-100 in PBS via a WellMate dispenser with controlled dispensing speeds. Cell nuclei were stained with Hoechst 33342 (H3570, Invitrogen), and all necessary washing steps were performed by a BioTek washer.
(§10) Data comprised triplicate measurements for each treatment (compound) condition, 42 replicates of DMSO-treated wells, and duplicates of Staurosporin-treated wells. The data was normalized to the median of the DMSO measurements and summarized by calculating the median of the triplicates. Data was imported into Chalice to calculate compound synergies.

[5] = system: A-375 cells expressing mutant NRASQ61K; assay: as above; conditions: Homo sapiens, A-375 NRASQ61K, single agent
Protocol: as §7, §8, §9, §10

[6] = system: A-375 cells expressing mutant MEK1P124L; assay: as above; conditions: Homo sapiens, A-375 MEK1P124L, single agent
Protocol: as §7, §8, §9, §10

[7] = system: WM-266-4 cells expressing mutant MEK1C121S; assay: as above; conditions: Homo sapiens, WM-266-4 MEK1C121S, single agent
Protocol: as §7, §8, §9, §10

A-375 cells [8] = assay: as above; conditions: Homo sapiens, A-375 parent, single agent
Protocol: as §7, §8, §9, §10

WM-266-4 cells [9] = assay: Microscopy imaging assay (viable nuclei count), 72 h; type: cell-based; conditions: Homo sapiens, WM-266-4 parent, single agent
Protocol: as §7, §8, §9
(§11) An automated image analysis pipeline was established using custom-made scripts in the open-source, statistical programming language R, and functions of the BioConductor package EBImage. The goal was to quantify the number of viable nuclei (cells) per well as an approximation for cell viability. The pipeline was comprised of seven steps: (I.) smoothing of the image to reduce the number of intensity peaks, (II.) application of a thresholding function to separate the foreground (signal) from the background (noise), (III.) identification of local maxima in the foreground that serve as seeds for the nuclei, (IV.) filtering of local maxima in close proximity, (V.) propagation of the nuclei from remaining local maxima, (VI.) and extraction of object features from the propagated nuclei (numbers of nuclei, size features and intensity features). As a last step (VII.), to exclude debris (e.g. fragmented nuclei) from counting, objects identified in DMSO- and Staurosporin-treated wells were used to obtain feature distributions for viable and fragmented nuclei, respectively. These were used to set cut-offs differentiating between viable and fragmented nuclei. The number of fragmented nuclei was subtracted from the total number of identified objects and the result was reported as final count for that well.
as §10

[10] = system: A-375 cells expressing mutant NRASQ61K; assay: as above; type: cell-based; conditions: Homo sapiens, A-375 NRASQ61K, single agent
Protocol: as §7, §8, §9, §11, §10

[11] = system: A-375 cells expressing mutant MEK1P124L; assay: as above; type: cell-based; conditions: Homo sapiens, A-375 MEK1P124L, single agent
Protocol: as §7, §8, §9, §11, §10

[12] = system: WM-266-4 cells expressing mutant MEK1C121S; assay: as above; type: cell-based; conditions: Homo sapiens, WM-266-4 MEK1C121S, single agent
Protocol: as §7, §8, §9, §11, §10

A-375 cells [13] = assay: as above; type: cell-based; conditions: Homo sapiens, A-375 parent, single agent
Protocol: as §7, §8, §9, §11, §10

Row | IC50 [5] [nM] | IC50 [6] [nM] | IC50 (A-375 cells [8]) [nM] | IC50 [10] [nM] | IC50 [11] [nM] | IC50 (A-375 cells [13]) [nM] | SMILES | growth in real time (cell index) (SK-MEL-5) | growth in real time (cell index) (COLO 741) | MAPK signaling (phosphorylated MEK and ERK levels) [1] | MAPK signaling (phosphorylated MEK and ERK levels) [2] | MTD ([3]; QD) [mg] | IC50 (WM-266-4 cells [4]) [nM] | IC50 [7] [nM] | RP2D ([3]; BID, in combination with B-Raf inhibitor of Formula (I) 600 mg) [mg] | IC50 (WM-266-4 cells [9]) [nM] | IC50 [12] [nM]
1 |  |  |  |  |  |  | CCN1CCN(c2ccc(Nc3cc(N(C)C(=O)Nc4c(Cl)c(OC)cc(OC)c4Cl)ncn3)cc2)CC1 [Compound H] | did not affect the proliferation | did not affect the proliferation | neither FGF2 nor Compound H when added as single agents affected signaling | neither FGF2 nor Compound H when added as single agents affected signaling | 125 |  |  |  |  | 
2 | 206 | > 2700 | 51 | 150 | > 2700 | 57 | Cn1cnc2c(F)c(Nc3ccc(Br)cc3F)c(C(=O)NOCCO)cc21 [Compound B] |  |  |  |  |  | 50 | 821 | 45 | 77 | 1210
